Test results taken from patent US20240344241A1, “PROTEINACEOUS MOLECULES AND USES THEREFOR” (THE UNIVERSITY OF QUEENSLAND, priority 2021, published 2024).
Bridge positions count the residues as written; N and C are the ends. Peptide text beside a SMILES is read from it.

Columns and labels:
[1] = system: human whole blood, intrinsic pathway (INTEM); test: Rotational thromboelastometry INTEM in human whole blood; conditions: 10 μM
Method: (§1) The anticoagulant activity of cyclic MCoFx7 was determined in human whole blood using two assays: activated clotting time (ACT) and rotational thromboelastometry (ROTEM). In ACT assays, the clotting time (y-axis) was increased in a dose-dependent manner from the control (124 s), reaching 223 s with 20 μM MCoFx7. […] Anticoagulant activity was verified by thromboelastometry (TEM) that was measured after activation of the intrinsic pathway (INTEM) (refer to FIG. 16). […] By comparison, a single concentration of cyclic [A25P]MCoFx7 (10 μM) produced a clotting time of 500 s, similar to cyclic MCoFx7 at 10 μM (469 s).
(§2) Activated clotting time (ACT) was measured in fresh whole blood using celite tubes with the Hemochron 401 coagulation analyzer (Soma Technology, Bloomfield, CT, USA). Whole blood clot formation was recorded by ROTEM® Thromboelastometry (Haemoview Diagnostics, Brisbane, Australia) using INTEM (contact factor-initiated coagulation) and HEPTEM (contact factor-initiated coagulation with heparinase) activating reagents according to the manufacturer's instructions.

[2] = system: human whole blood; test: Activated clotting time (ACT) in human whole blood; conditions: 10 μM, human whole blood
Method: as §1, §2

[3] = molecular target: T1, Human β-FXIIa (Homo sapiens, UniProt P00748); test: FXIIa competitive inhibition assay, fluorescent substrate Boc-QGR-MCA; type: biochemical
T1 construct: Human β-FXIIa was obtained from Molecular Innovations, together with human FXa, human FXIa, human α-thrombin, and human plasma kallikrein; purchased Molecular Innovations; host or cells: purified from human plasma
Text: Cyclic [I7F]MCoFx1 (also referred to as cyclic MCoFx6) was synthesized using solid phase peptide synthesis ([[…]] [SEQ ID NO: 97]). For this inhibitor, Tyr33 was mutated back to serine as per the original mRNA display screen (FIG. 1). Cyclic MCoFx6 was screened using a competitive inhibition assay, with the substrate being changed from a colorimetric substrate (Ac-QRFR-pNA in the data of Tables 7 and 10) to a fluorescent substrate (Boc-QGR-MCA) to allow the assay to be run with a lower concentration of enzyme. The assay was performed as described for Examples 2 and 3, except that the FXIIa concentration was 0.5 nM and the substrate concentration was 50 μM (KM=187 μM).
The new variants were screened using competitive inhibition assays, with the substrate being changed from a colorimetric substrate (Ac-QRFR-pNA in the data of Tables 7 and 10) to a fluorescent substrate (Boc-QGR-MCA) to allow the assay to be run with a lower concentration of enzyme. Assays were performed as described for Examples 2 and 3, except that the FXIIa concentration was 0.5 nM and the substrate concentration was 50 μM (KM=187 μM). […] The effect of amino acid substitutions within loop 2 (Arg12, Arg13), loop 5 (Ala25, Arg27) or loop 6 (Asp34) on the activity of cyclic MCoFx7 against FXIIa was determined (refer to Table 14). […] Additionally, mutating Arg to Glu (reversing the side chain charge) only led to two-fold weaker activity. The adjacent residue Arg13 could also be mutated to Lys with no change in activity. Within loop 5, mutating Ala25 to Lys produced a slight gain in activity, whereas the Ala to Pro mutation led to a slight decrease in activity. Both mutations at Arg27 led to losses in activity in the order of two-fold (His) or 3.2-fold (Gly).
(§3) The activity of acyclic and cyclic MCoFx1-5 and analogues thereof was assessed in competitive inhibition assays, as previously described in Swedberg et al. (2016) J Med Chem, 59: 7287-7292. Human β-FXIIa was obtained from Molecular Innovations, together with human FXa, human FXIa, human α-thrombin, and human plasma kallikrein. Human cationic trypsin and human plasmin were obtained from Sigma-Aldrich, and recombinant human matriptase was sourced from R&D Systems. Recombinant human urokinase (uPA) and recombinant human tissue plasminogen activator (tPA) were expressed in Expi293 cells, as previously described in Li et al. (2019) Chembiochem, 20: 46-50. FXIIa inhibition assays were performed in clear, low-binding 96-well plates using 250 μL (final volume) of assay buffer (0.1 M Tris-HCl pH 8.0, 0.1 M NaCl, 10 mM CaCl2 and 0.005% Triton X-100). Inhibitors were serially diluted and incubated with 10 nM FXIIa at room temperature to reach equilibrium. After adding 100 μM Ac-QRFR-pNA substrate (KM=162 μM), enzymatic activity was measured by monitoring release of the pNA moiety using a TECAN infinite M1000 Pro plate reader (A=405 nm, reading interval, 10 s; assay time course, 7 min). Assays were conducted in three times in duplicate. Substrate kinetic constants (Michaelis-Menten) and inhibition constants (Morrison K) were determined by non-linear regression using Prism 7 (GraphPad). Selectivity assays with off-target proteases were performed in a similar way, except that different concentrations of enzyme and substrate were used, as indicated in Table 16. For assays using a fluorescent substrate (peptide-4-methylcoumaryl-7-amide, MCA), black low-binding 96-well plates were used and activity was measured using a TECAN infinite M1000 pro plate reader (λex 360 nm, λem 460 nm, reading interval, 30 s; assay time course, 5-30 min).

[4] = molecular target: T2, Human thrombin (Homo sapiens, UniProt P00734); test: Thrombin inhibition assay; type: biochemical
T2 construct: Human β-FXIIa was obtained from Molecular Innovations, together with human FXa, human FXIa, human α-thrombin, and human plasma kallikrein; purchased Molecular Innovations; host or cells: purified from human plasma
Method: as §3

[5] = molecular target: T3, Human FXa (Homo sapiens, UniProt P00742); test: FXa inhibition assay; type: biochemical
T3 construct: Human β-FXIIa was obtained from Molecular Innovations, together with human FXa, human FXIa, human α-thrombin, and human plasma kallikrein; purchased Molecular Innovations; host or cells: purified from human plasma
Method: as §3

[6] = system: clotting via the intrinsic pathway; test: Activated partial thromboplastin time (aPTT) assay in human plasma; type: biochemical
Text: (§4) Citrated, platelet-poor plasma samples from healthy adults were collected, prepared, and stored using previously established collection protocols, such as in Zdenek et al. (2019) Toxicol in Vitro, 58: 97-109.
(§5) Standard coagulation assays were used to determine the effect of the inhibitors on the clotting time of human plasma. Activated partial thromboplastin time (aPTT) uses a Kaolin reagent (clay) to activate the intrinsic/contact pathway of the coagulation cascade, whereas prothrombin time (PT) uses Neoplastine (lyophilized thromboplastin prepared from rabbit cerebral tissue) to activate the extrinsic/tissue-factor pathway of the coagulation cascade. A minor adjustment was made to both tests (addition of 25 μL inhibitor or buffer; refer to Table 17) to accommodate the addition of an inhibitor without changing the total volume (and therefore relative ratios of additives) of the assay. Concentrations of inhibitor are reported as the concentration at the point of incubation in the assay, i.e. not taking into account the addition of the start reagent (calcium for aPTT, or Neoplastine for PT).
(§6) Clotting time (seconds) of plasma was automatically measured using a STA-R Max® analyzer (Stago, Asnieres sur Seine, France). Measurements were conducted using a viscosity-based (mechanical) detection system, whereby opposing magnets oscillate a small metal spherical pellet inside the test cuvette (250 μL total volume) until a clot is formed. Dilution of the inhibitor in Owren-Koller (OK) buffer for dose-response curves was performed automatically by the machine. Reagents were kept at 15-19° C. in the machine during experimentation and otherwise stored at 4° C. All tests were performed in triplicate.

[7] = molecular target: T1, Human β-FXIIa; test: FXIIa competitive inhibition assay, colorimetric substrate Ac-QRFR-pNA; type: biochemical
Summary of the method: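 Serially diluted inhibitors equilibrated at room temperature with 10 nM β-FXIIa in 0.1 M Tris-HCl pH 8.0, 0.1 M NaCl, 10 mM CaCl2, 0.005% Triton X-100; 100 μM Ac-QRFR-pNA (KM=162 μM), A405 over 7 min. Off-target proteases used differing enzyme/substrate levels, some with fluorogenic MCA substrates (ex 360/em 460 nm, 5-30 min). Morrison Ki by non-linear regression.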

[8] = molecular target: T4, Rec. human tPA (Homo sapiens, UniProt P00750); test: tPA inhibition assay; type: biochemical
T4 construct: made in house; host or cells: Expi293 cells
Method: as §3

[9] = molecular target: T5, Human plasmin (Homo sapiens, UniProt P00747); test: Plasmin inhibition assay; type: biochemical
T5 construct: Human cationic trypsin and human plasmin were obtained from Sigma-Aldrich, and recombinant human matriptase was sourced from R&D Systems; purchased Sigma-Aldrich; host or cells: purified from human plasma
Method: as §3

[10] = molecular target: T6, Rec. human uPA (Homo sapiens, UniProt P00749); test: uPA inhibition assay; type: biochemical
T6 construct: made in house; host or cells: Expi293 cells
Method: as §3

[11] = system: clotting via the extrinsic pathway; test: Prothrombin time (PT) assay in human plasma; type: biochemical; conditions: at 10 μM
Text: as §4, §5, §6

[12] = molecular target: T7, Rec. human matriptase (Homo sapiens, UniProt Q9Y5Y6); test: Matriptase inhibition assay; type: biochemical
T7 construct: purchased R&D Systems
T7 sequence (Q9Y5Y6 615-855 limits assumed): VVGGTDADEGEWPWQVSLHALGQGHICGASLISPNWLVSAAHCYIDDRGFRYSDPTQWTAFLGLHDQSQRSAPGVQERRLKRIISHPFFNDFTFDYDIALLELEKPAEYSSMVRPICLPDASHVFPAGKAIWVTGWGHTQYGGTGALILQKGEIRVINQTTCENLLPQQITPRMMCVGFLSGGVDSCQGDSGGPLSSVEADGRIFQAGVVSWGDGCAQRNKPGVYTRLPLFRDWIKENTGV
Method: as §3

[13] = molecular target: T8, Human plasma kallikrein (Homo sapiens, UniProt P03952); test: Plasma kallikrein inhibition assay; type: biochemical
T8 construct: Human β-FXIIa was obtained from Molecular Innovations, together with human FXa, human FXIa, human α-thrombin, and human plasma kallikrein; purchased Molecular Innovations; host or cells: purified from human plasma
Method: as §3

[14] = Stability in human serum; conditions: human serum, 37° C., up to 24 h
Method: Briefly, peptides were incubated at a final concentration of 30 μM in human serum (human male AB serum, Sigma-Aldrich) at 37° C. for 0, 1, 12 and 24 h. The reaction was stopped at designated times, with the serum proteins being denatured by addition of two volumes of acetonitrile (v/v). The samples were then spun at 17,000 g for 10 min and the amount of peptide in the supernatant was quantified using analytical HPLC. The percentage of peptide remaining at 1, 12 and 24 h was calculated using the area of the serum-treated peptide peak from 0 h as 100%.

[15] = molecular target: T9, Human FXIa (Homo sapiens, UniProt P03951); test: FXIa inhibition assay; type: biochemical
T9 construct: Human β-FXIIa was obtained from Molecular Innovations, together with human FXa, human FXIa, human α-thrombin, and human plasma kallikrein; purchased Molecular Innovations; host or cells: purified from human plasma
Method: as §3

[16] = molecular target: T10, Human trypsin (Homo sapiens, UniProt P07477); test: Trypsin competitive inhibition assay; type: biochemical
T10 construct: purchased Sigma-Aldrich; host or cells: purified from human tissue
Method: as §3

T9 sequence (P03951 388-625 limits assumed): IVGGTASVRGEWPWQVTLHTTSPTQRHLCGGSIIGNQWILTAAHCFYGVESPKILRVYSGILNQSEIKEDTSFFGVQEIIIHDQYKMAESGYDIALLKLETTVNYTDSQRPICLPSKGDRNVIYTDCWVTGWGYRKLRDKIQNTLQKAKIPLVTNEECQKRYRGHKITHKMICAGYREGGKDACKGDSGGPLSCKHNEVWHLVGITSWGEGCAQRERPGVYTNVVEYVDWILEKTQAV
T9 sequence (P03951 19-387 partner limits assumed): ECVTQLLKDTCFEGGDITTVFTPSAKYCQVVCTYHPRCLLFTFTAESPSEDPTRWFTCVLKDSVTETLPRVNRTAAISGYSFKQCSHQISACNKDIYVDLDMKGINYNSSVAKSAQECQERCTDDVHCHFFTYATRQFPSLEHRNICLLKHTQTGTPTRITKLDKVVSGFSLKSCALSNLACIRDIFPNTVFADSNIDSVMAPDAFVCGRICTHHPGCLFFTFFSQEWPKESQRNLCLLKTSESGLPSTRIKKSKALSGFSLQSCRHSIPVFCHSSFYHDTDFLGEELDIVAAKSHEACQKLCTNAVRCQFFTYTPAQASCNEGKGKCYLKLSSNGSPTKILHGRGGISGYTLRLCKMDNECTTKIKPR
T1 sequence (P00748 373-615 limits assumed, other chains not shown): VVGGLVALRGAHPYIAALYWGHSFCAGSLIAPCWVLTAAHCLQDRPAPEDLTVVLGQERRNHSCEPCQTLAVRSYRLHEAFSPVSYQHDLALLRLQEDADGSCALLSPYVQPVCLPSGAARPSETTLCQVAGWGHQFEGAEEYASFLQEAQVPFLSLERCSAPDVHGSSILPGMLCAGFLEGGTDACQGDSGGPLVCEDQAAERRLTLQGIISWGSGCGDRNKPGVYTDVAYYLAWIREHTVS
T4 sequence (P00750 36-562): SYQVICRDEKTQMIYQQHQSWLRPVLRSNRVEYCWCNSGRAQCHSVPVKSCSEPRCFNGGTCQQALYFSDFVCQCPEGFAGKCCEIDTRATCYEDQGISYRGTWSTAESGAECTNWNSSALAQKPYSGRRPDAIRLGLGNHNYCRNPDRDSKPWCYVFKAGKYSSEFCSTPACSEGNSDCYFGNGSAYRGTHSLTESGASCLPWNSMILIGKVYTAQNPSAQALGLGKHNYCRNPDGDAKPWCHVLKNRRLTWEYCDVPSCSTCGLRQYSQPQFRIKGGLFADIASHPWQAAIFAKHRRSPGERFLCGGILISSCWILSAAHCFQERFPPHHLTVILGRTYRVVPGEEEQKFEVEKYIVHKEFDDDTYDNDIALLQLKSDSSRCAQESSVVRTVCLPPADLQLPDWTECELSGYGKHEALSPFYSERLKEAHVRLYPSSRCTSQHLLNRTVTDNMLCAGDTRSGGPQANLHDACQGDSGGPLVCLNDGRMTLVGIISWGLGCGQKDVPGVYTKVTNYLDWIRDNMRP
T8 sequence (P03952 391-638 limits assumed): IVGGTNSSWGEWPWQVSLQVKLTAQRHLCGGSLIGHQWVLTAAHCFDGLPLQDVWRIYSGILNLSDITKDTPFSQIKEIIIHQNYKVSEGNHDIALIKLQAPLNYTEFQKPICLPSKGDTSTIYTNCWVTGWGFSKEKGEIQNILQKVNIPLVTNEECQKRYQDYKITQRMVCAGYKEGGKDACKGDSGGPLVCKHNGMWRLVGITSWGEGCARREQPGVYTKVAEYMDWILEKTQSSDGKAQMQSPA
T8 sequence (P03952 20-390 partner limits assumed): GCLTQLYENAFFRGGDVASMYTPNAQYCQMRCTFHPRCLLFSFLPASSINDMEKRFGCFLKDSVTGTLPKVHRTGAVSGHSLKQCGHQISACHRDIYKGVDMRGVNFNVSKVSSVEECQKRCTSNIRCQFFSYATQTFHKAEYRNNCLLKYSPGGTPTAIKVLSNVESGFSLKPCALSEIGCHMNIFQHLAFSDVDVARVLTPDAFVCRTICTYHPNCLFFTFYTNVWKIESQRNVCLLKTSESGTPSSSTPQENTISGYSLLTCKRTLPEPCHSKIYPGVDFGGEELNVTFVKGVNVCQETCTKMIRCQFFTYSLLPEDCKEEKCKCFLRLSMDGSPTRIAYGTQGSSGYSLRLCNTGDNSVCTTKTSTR
T3 sequence (P00742 235-488 limits assumed): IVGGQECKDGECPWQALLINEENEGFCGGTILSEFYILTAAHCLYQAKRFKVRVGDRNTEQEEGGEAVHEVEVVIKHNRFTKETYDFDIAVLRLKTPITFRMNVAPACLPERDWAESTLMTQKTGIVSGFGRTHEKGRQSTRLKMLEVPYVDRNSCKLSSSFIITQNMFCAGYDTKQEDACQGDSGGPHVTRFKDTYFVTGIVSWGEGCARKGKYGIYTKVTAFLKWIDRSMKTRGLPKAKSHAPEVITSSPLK
T3 sequence (P00742 41-179 partner limits assumed): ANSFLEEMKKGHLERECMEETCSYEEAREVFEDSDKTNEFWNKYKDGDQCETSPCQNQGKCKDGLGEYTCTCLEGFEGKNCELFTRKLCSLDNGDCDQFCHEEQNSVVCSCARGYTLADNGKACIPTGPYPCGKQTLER
T5 sequence (P00747 581-810 limits assumed): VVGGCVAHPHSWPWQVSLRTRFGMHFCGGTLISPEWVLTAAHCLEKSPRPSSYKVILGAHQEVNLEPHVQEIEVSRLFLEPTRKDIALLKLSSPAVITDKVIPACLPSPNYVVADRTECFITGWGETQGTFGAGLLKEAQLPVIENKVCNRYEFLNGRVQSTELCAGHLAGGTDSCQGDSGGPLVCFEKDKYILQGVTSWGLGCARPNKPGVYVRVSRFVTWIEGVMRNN
T5 sequence (P00747 97-580 partner limits assumed): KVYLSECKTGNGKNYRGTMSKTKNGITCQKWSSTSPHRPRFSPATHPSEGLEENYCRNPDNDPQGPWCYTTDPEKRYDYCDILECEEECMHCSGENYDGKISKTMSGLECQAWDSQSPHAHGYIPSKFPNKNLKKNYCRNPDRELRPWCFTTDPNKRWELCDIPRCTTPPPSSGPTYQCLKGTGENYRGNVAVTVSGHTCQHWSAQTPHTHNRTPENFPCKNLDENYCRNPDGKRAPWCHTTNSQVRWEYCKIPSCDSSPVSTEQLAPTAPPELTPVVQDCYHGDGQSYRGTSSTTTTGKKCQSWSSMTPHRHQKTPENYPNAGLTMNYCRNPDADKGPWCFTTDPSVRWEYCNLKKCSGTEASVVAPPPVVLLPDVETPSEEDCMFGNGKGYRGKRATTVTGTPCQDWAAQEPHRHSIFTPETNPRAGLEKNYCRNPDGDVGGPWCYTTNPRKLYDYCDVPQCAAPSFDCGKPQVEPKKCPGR

SMILES: CC[C@H](C)[C@@H]1NC(=O)CNC(=O)CNC(=O)[C@H](CC(=O)O)NC(=O)[C@H](CO)NC(=O)CNC(=O)[C@H](CO)NC(=O)CNC(=O)[C@@H]2CSSC[C@@H]3NC(=O)[C@H](CC(=O)O)NC(=O)[C@H](CO)NC(=O)[C@H](CC(=O)O)NC(=O)[C@H](CCCNC(=N)N)NC(=O)[C@H](CCCNC(=N)N)NC(=O)[C@@H]4CSSC[C@H](NC(=O)[C@H]([C@@H](C)CC)NC(=O)[C@H](CSSC[C@H](NC1=O)C(=O)N1CCC[C@H]1C(=O)N[C@@H](CCCNC(=N)N)C(=O)N[C@@H]([C@@H](C)CC)C(=O)NCC(=O)N[C@@H](CCCNC(=N)N)C(=O)N[C@@H](CC(C)C)C(=O)N4)NC(=O)[C@H](C)NC(=O)CNC(=O)[C@@H]1CCCN1C3=O)C(=O)N[C@@H](CCCNC(=N)N)C(=O)N1CCC[C@H]1C(=O)N[C@@H]([C@@H](C)O)C(=O)N[C@@H](CCCNC(=N)N)C(=O)N[C@@H](Cc1ccccc1)C(=O)N2 [Cyclic [A25P]MCoFx7] (cyclo(ACICRPTRFCGSGSDGGICPRIGRLCRRDSDCPG); disulfide 2-19, 4-26, 10-32)
- INTEM clotting time [1]: 500 s
- ACT clotting time [2]: 186 s
- Ki [3]: 0.093 ± 0.005 nM

SMILES: CC[C@H](C)[C@@H]1NC(=O)CNC(=O)CNC(=O)[C@H](CC(=O)O)NC(=O)[C@H](CO)NC(=O)CNC(=O)[C@H](CO)NC(=O)CNC(=O)[C@@H]2CSSC[C@@H]3NC(=O)[C@H](CC(=O)O)NC(=O)[C@H](CO)NC(=O)[C@H](CC(=O)O)NC(=O)[C@H](CCCNC(=N)N)NC(=O)[C@H](CCCNC(=N)N)NC(=O)[C@@H]4CSSC[C@H](NC(=O)[C@H]([C@@H](C)CC)NC(=O)[C@H](CSSC[C@H](NC1=O)C(=O)N1CCC[C@H]1C(=O)N[C@@H](CCCNC(=N)N)C(=O)N[C@@H]([C@@H](C)CC)C(=O)NCC(=O)N[C@@H](CCCNC(=N)N)C(=O)N[C@@H](CC(C)C)C(=O)N4)NC(=O)[C@H](C)NC(=O)CNC(=O)[C@@H]1CCCN1C3=O)C(=O)N[C@@H](CCCNC(=N)N)C(=O)NCC(=O)N[C@@H](CC(N)=O)C(=O)NCC(=O)N[C@@H](Cc1ccc(O)cc1)C(=O)N2 [cMCoTI-fxL1] (cyclo(ACICRGNGYCGSGSDGGICPRIGRLCRRDSDCPG); disulfide 2-19, 4-26, 10-32)
- IC50 [4]: > 5000 nM
- inhibition at 5 µM ([4]; read-out: percent inhibition Thrombin): 1%
- IC50 [5]: > 5000 nM
- inhibition at 5 µM ([5]; read-out: percent inhibition FXa): 0%
- EC2× (concentration required to double the clotting time) [6]: 500 nM
- Ki [7]: 0.69 nM
- IC50 [8]: > 5000 nM
- inhibition at 5 µM ([8]; read-out: percent inhibition tPA): 1%
- IC50 [9]: > 5000 nM
- inhibition at 5 µM ([9]; read-out: percent inhibition Plasmin): 19%
- IC50 [10]: > 5000 nM
- inhibition at 5 µM ([10]; read-out: percent inhibition uPA): 0%
- clotting time compared to control, PT assay [11]: No significant differences in clotting time compared to control assays
- Ki [12]: 2210 nM
- IC50 [13]: > 5000 nM
- inhibition at 5 µM ([13]; read-out: percent inhibition Plasma kallikrein): 0%
- resistance to serum proteases (in words) [14]: highly resistant to serum proteases
- IC50 [15]: > 5000 nM
- inhibition at 5 µM ([15]; read-out: percent inhibition FXIa): 1%
- Ki [16]: 996 nM
